Data from patent US20020095030A1, “FLIP GENES AND FLIP PROTEINS” (priority 1997, published 2002).
Peptide text beside a SMILES is read from it. * marks the point of attachment. Cbz = O=C(OCc1ccccc1)*; CH2F = FC*

Test system: 293T-cells
Assay: Apoptosis by over-expression of TRAMP in 293T cells (Cell Death Detection ELISA)
Format: cell-based, human
Conditions: 25 μM in medium

With `COC(=O)C[C@H](NC(=O)[C@H](C)NC(=O)[C@@H](NC(=O)OCc1ccccc1)C(C)C)C(=O)CF` [z-VAD-fmk] (Cbz-Val-Ala-Asp(OMe)-CH2F) the “protection of TRAMP over expressing cells” value was 100%.
